The values that follow come from patent US5516905A, “Antibiotic compounds and methods to treat gram-positive bacterial and mycoplasmal infections” (priority 1994, dated 1996).

The test system of data set [1] is M. pulmonis strain KD735-15. Nature of the data set: Mycoplasmal growth inhibition on agar (colony formation, cfu). Particulars: for IC99: Mycoplasmopsis pulmonis, KD73515, series 100, 50, 25, 12.5 and 6.25 μM, read-out: Concentration required to inhibit colony formation by 99%. It is filed as cell-based, Mycoplasma pulmonis. As to the method: M. pulmonis strain KD735-15 (construction described in Bhugra and Dybvig, 1992) was propagated in mycoplasmal medium, and colony-forming units (cfu) were assessed on agar as previously described (Dybvig and Cassell, 1987). M pulmonis is a representative species which is well characterized. Other publicly available strains may also be used. For example, Mycoplasma agalactiae, ATCC 35890, Mycoplasma arthritidis ATCC 13988, Mycoplasma bovigenitalium, ATCC 14173, Mycoplasma bovirhinis, ATCC 27748, Mycoplasma bovis, ATCC 25025, Mycoplasma felis, ATCC 23391, Mycoplasma gallinaceum, ATCC 33550, Mycoplasma gallinarum, ATCC 15319, Mycoplasma gallisepticum, ATCC 15302, Mycoplasma genitalium, ATCC 33530, Mycoplasma hominis, ATCC 14027, Mycoplasma hyorhinis, ATCC 17981, Mycoplasma hyosynoviae, ATCC 25591, Mycoplasma meleagridis, ATCC 25294, Mycoplasma orale, ATCC 15539, Mycoplasma pneumoniae, ATCC 15293, Mycoplasma pullorum, ATCC 33553, Mycoplasma pulmonis, ATCC 14267, Mycoplasma putrefaciens, ATCC 15718, Mycoplasma synoviae, ATCC 25204, may also be used. The inhibitors used here were prepared as described in Wright and Brown ((1990) Pharmac. Ther. 47:447-497) and were prepared at a stock concentration of 20 mM in dimethyl sulphoxide (DMSO). Growth inhibition was examined on agar by comparing cfu obtained on medium lacking or supplemented with antibiotic. DMSO alone at concentrations as high as 1% had no effect on growth or cfu capacity of M. pulmonis.
HPUra and 25 other agents selected from a large collection of structurally related compounds (Wright and Brown, 1990, Pharmac. Ther. 47:447-497) were tested against M. pulmonis at a concentration of 200 μM as described in the Experimental procedures.

The target of the next data set is T1, B. subtilis Pol III (Bacillus subtilis, UniProt P13267).
T1 construct: B. subtilis Pol III was prepared and used as described by (Barnes); made in house
T1 sequence (P13267 whole entry): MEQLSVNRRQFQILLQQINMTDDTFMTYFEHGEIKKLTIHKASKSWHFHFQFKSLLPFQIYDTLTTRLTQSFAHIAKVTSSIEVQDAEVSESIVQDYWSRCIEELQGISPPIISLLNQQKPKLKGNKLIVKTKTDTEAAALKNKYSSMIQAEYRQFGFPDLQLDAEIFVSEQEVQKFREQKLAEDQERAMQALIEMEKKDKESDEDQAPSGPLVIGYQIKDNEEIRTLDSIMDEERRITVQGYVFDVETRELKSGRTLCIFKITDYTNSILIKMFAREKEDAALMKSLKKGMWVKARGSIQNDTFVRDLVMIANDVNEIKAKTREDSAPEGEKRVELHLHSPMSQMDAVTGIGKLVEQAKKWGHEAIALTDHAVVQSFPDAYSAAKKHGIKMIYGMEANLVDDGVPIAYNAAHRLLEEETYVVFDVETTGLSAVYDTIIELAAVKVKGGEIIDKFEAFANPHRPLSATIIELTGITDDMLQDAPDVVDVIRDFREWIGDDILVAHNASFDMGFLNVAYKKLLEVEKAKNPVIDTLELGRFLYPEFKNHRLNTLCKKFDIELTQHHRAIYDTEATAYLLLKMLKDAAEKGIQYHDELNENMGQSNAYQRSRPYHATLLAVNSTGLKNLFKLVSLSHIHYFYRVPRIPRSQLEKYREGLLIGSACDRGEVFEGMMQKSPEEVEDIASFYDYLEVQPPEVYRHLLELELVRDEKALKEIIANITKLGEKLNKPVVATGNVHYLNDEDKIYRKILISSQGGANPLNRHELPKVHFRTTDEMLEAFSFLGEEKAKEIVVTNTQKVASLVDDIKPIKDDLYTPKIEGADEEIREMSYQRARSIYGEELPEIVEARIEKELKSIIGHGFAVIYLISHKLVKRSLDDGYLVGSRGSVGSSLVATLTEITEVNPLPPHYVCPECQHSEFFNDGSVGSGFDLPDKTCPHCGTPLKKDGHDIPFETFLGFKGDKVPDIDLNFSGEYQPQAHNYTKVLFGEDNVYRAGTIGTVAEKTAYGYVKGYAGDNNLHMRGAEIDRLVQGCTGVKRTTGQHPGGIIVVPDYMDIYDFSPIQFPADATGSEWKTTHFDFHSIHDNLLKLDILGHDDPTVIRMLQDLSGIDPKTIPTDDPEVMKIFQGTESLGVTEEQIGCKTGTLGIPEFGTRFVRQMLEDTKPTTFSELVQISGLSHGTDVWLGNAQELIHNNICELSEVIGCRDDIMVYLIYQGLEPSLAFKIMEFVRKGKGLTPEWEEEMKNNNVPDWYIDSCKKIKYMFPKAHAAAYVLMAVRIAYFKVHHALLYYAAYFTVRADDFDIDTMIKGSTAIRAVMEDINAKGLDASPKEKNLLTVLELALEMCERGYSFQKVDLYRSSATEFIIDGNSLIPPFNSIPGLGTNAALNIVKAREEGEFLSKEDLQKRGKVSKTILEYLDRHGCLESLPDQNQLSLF
Nature of the data set: DNA polymerase activity assay, B. subtilis Pol III. Conditions: dGTP 10 μM; arylazopyrimidines reduced to hydrazino forms. It is filed as biochemical. As for the experimental part:
(§1) DNA pol activity was assayed as described (Barnes et al., NuC. Acids Res., 6:1203-19 (1979)), using activated calf-thymus DNA as template primer, […] [^3 H-methyl]-dTTP as the labelled dNTP substrate, and dATP, dCTP, and dGTP at 25 μM each. For determination of IC50 values of TMAU and the four arylazopyrimidines (summarized in Table 2), the concentration of dGTP was reduced from 25 to 10 μM. TMAU was used directly in enzyme assays, and arylazopyrimidines were reduced prior to assay to the active, hydrazino forms, using sodium dithionite as described by Wright and Brown (1977) J. Med. Chem. 20:1181-1185.
(§2) Five compounds were used to assess the sensitivity of peak A pol activity to HPUra-type inhibitors. These were the four compounds used in the growth experiment described above (HPUra, PUra, PCPUra, and MCPUra) as well as TMAU (6-([…]) uracil), a `second generation` derivative of the HPUra prototype, equivalent in mechanism and target specificity (Wright and Brown, 1990). The IC50 value (the concentration required for 50% inhibition) of each of these agents was determined for the peak A pol activity and for an inhibitor-sensitive control enzyme, B. subtilis Pol III.

The target of data set [2] is T2, M. pulmonis peak A pol activity (Pol III).
T2 construct: we prepared a crude extract of M. pulmonis; endogenous in cells; host or cells: M. pulmonis (strain KD735-15 was the strain propagated)
T2 sequence (P13267 whole entry): as above
Kind of data set: DNA polymerase activity assay, M. pulmonis peak A pol (Bio-Rex 70). It is filed as biochemical. Conditions: Fraction 7 from peak A; dGTP 10 μM; arylazopyrimidines reduced to hydrazino forms. As to the method:
(§3) Fraction Va (Bio-Rex 70 chromatography): Fraction IV was diluted with column buffer containing 1% Triton X-100 to reduce the concentration of NaCl to 25 mM, and then applied to a 2 ml Bio-Rex 70 (Bio-Rad) column equilibrated in column buffer containing 1% Triton X-100+25 mM NaCl. The column was washed with 5 ml of the same buffer, and the adsorbed enzyme was eluted in two distinct peaks (designated A and B) at approximately 0.15 and 0.30M NaCl, respectively. As the top panel of the figure indicates, peak A represents the HPUra-sensitive pol activity. Peak A was pooled to generate Fraction Va.
as §1, §2

Data set [3] concerns the target T3, exo activity of peak A pol (Bacillus subtilis, UniProt P13267).
T3 construct: we prepared a crude extract of M. pulmonis; endogenous in cells; host or cells: M. pulmonis (strain KD735-15 was the strain propagated)
Nature of the data set: Exo activity of peak A enzyme on 3'-labelled ssDNA. It is filed as biochemical, M. pulmonis. Particulars: for inhibition at 50 µM: read-out: Inhibition of ssDNA digestion. As for the experimental part: (§4) Exo activity was assayed as described by Low et al. (1976), supra, using denatured calf-thymus DNA incorporating [^3 H]-dTMP residues at the 3'-OH ends.
(§5) TMAU at 50 μM inhibited ssDNA digestion by about 70% in the presence of dsDNA. When the latter mixture was supplemented with 500 μM dGTP, the specific antagonist of TMAU-induced sequestration inhibition was reduced to a level of <3%.

A further data set concerns Control SA. Kind of data set: Minimal inhibitory concentration vs. growth of Staphylococcus aureus (control strain). It is filed as cell-based.
The test system of another data set is Methicillin-Resistant SA. Kind of data set: Minimal inhibitory concentration vs. growth of methicillin-resistant Staphylococcus aureus. It is filed as cell-based.
A further data set deals with Wild-Type BS. Nature of the data set: Minimal inhibitory concentration vs. growth of B. subtilis. It is filed as cell-based. Particulars: Bacillus subtilis.
The test system of data set [4] is T4, exo activity of peak A pol.
T4 construct: we prepared a crude extract of M. pulmonis; endogenous in cells; host or cells: M. pulmonis (strain KD735-15 was the strain propagated)
T4 sequence (P13267 whole entry): as above
Kind of data set: Exo activity of peak A enzyme on 3'-labelled ssDNA. It is filed as biochemical, M. pulmonis. Conditions: TMAU 50 μM, dsDNA, plus 500 μM dATP. As for the experimental part: as §4, §5

Data set [5] deals with T5, M. pulmonis peak A pol activity (Pol III) (Bacillus subtilis, UniProt P13267).
T5 construct: we prepared a crude extract of M. pulmonis; endogenous in cells; host or cells: M. pulmonis (strain KD735-15 was the strain propagated)
T5 sequence (P13267 whole entry): as above
Kind of data set: DNA polymerase activity assay, M. pulmonis peak A pol (Bio-Rex 70). It is filed as biochemical. Particulars: 200 μM HPUra. As to the method:
as §3, §1, §2

The subject of data set [6] is M. pulmonis peak B pol activity. Kind of data set: DNA polymerase activity assay, M. pulmonis peak B pol (Bio-Rex 70). Particulars: 200 μM HPUra. It is filed as biochemical. As for the experimental part:
as §3, §1
To characterize the HPUra-sensitive pol activity further, we purified it using a five-step scheme summarized in Table 1 and described in the Experimental procedures. […]

The next data set has as its system mammalian cells. Particulars: cited from earlier work.
Where [7] appears, read: nucleotide 500 μM, no TMAU, sequestering conditions with dsDNA.

≈ marks a conversion by molar mass, not a printed value. Read-outs that look alike come from different tables or passages of the source. A value given as a limit tells only on which side of the number the result lay.

T3 sequence (P13267 whole entry): as above

On to `O=c1cc(N=Nc2ccccc2)[nH]c(=O)[nH]1` [PUra, 6-(phenylazo)uracil], for which, in [1], the IC99 is 6.25 to 12.5 µM. The IC50 at B. subtilis Pol III was found to be 34 µM; in data set [2], 20 µM.
Consider `O=c1cc(N=Nc2cccc(Cl)c2)[nH]c(=O)[nH]1` [MCPUra, 6-(m-chlorophenylazo)uracil], for which, in data set [1], the IC99 stood at 12.5 µM. For the same compound, the results for the IC50 (against B. subtilis Pol III; in data set [2]) were 48 µM and 17 µM, respectively.
For `Nc1ncnc2c1ncn2[C@H]1C[C@H](O)[C@@H](COP(=O)(O)OP(=O)(O)OP(=O)(O)O)O1` [dATP], the “Exo Activity (%)” value in data set [3] (setting [7]) stood at 101%.
For the compound `O=c1cc(Nc2ccc3c(c2)CCC3)[nH]c(=O)[nH]1` [TMAU, 6-(3',4'-trimethylanilino) uracil], the minimal inhibitory concentration (MIC) in the data set with Control SA amounted to 8 µg/mL (≈ 32.9 µM); against Methicillin-Resistant SA it was 4 µg/mL (≈ 16.4 µM); in the data set with Wild-Type BS it was 23 µg/mL (≈ 94.5 µM). The IC50 on B. subtilis Pol III came out at 8 µM; in [2], 11 µM. In data set [3] (TMAU 50 μM + dGTP 500 μM, sequestering conditions with dsDNA), the “Exo Activity (%)” value was determined as 98%. Besides, the activity at 50 µM in data set [3] (TMAU 50 μM alone, sequestering conditions with dsDNA) came to 31%. Also, the inhibition at 50 µM is less than 3% in data set [3] (TMAU 50 μM, dsDNA, plus 500 μM dGTP) and roughly 70% in [3] (TMAU 50 μM, in the presence of dsDNA). Moreover, the “Exo activity on ssDNA, sensitivity” value in [3] (TMAU 50 μM, ssDNA without dsDNA, preliminary, results not shown) was “resistant”. In [4], the “Effect of dATP on level of inhibition of ssDNA digestion” value was “no significant effect”.
`Oc1cc(N=Nc2ccc(Cl)cc2)nc(O)n1` [PCPUra, 6-(p-chlorophenylazo) uracil]: the IC99 in data set [1] is less than 6.25 µM. Further, the IC50 turned out to be 57 µM against B. subtilis Pol III and 31 µM in data set [2].
Regarding `Nc1nc2c(ncn2[C@H]2C[C@H](O)[C@@H](COP(=O)(O)OP(=O)(O)OP(=O)(O)O)O2)c(=O)[nH]1` [dGTP], the “Exo Activity (%)” value in data set [3] (setting [7]) is reported as 103%.
On to `CCCn1c(=O)cc(Nc2ccc3c(c2)CCC3)[nH]c1=O` [nC3 H7], for which, in the data set with Wild-Type BS, the MIC came out at 3.5 µg/mL (≈ 12.3 µM).
Turning to `COc1cccc(OC)c1C(=O)N[C@@H]1C(=O)N2[C@@H]1SC(C)(C)[C@@H]2C(=O)O` [Methicillin], the MIC in the data set on Control SA came out at 1 µg/mL (≈ 2.63 µM); in the data set with Methicillin-Resistant SA, 128 µg/mL (≈ 336 µM).
`CCCCn1c(=O)cc(Nc2ccc3c(c2)CCC3)[nH]c1=O` [nC4 H9]: the MIC against Control SA is greater than 128 µg/mL; against Methicillin-Resistant SA it was 0.5 µg/mL (≈ 1.67 µM); with Wild-Type BS it was 1.8 µg/mL (≈ 6.01 µM).
For `CCn1c(=O)cc(Nc2ccc3c(c2)CCC3)[nH]c1=O` [C2 H5] the same measures were 1 µg/mL (≈ 3.69 µM), 0.5 µg/mL (≈ 1.84 µM) and 4 µg/mL (≈ 14.7 µM).
For the compound `O=c1cc(N=Nc2ccc(O)cc2)[nH]c(=O)[nH]1` [HPUra, 6-(p-Hydroxyphenylazo)-uracil], the “Inhibition of colony formation” value in data set [1] (200 μM) is reported as “completely inhibited colony formation”. For the same compound, the IC50 against B. subtilis Pol III is 11 µM; in [2], 14 µM. Further, the “Sensitivity of peak A pol activity” value in data set [5] is given as “drug-sensitive”. In addition, the “Sensitivity of peak B pol activity” value in data set [6] is reported as “insensitive”. In addition, the “Toxicity in mammalian cells” value in the data set on mammalian cells is “low toxicity”.
For `Cn1c(=O)cc(Nc2ccc3c(c2)CCC3)[nH]c1=O` [CH3], it took 7 µg/mL (≈ 27.2 µM) to inhibit growth against Wild-Type BS (MIC).

A word on the IC50: it is the concentration that inhibits the measured activity by half. As a reminder, the MIC is the lowest concentration found to suppress growth. A high value points to a need for much substance. What is called inhibition is how much of the control response was suppressed.
